We go through 15 molecules from the NIST ThermoML archive (doi:10.1016/j.jct.2013.01.005).

Numbers after ± are expanded uncertainties.

This series is described as follows: activity coefficient (dimensionless); of the first substance listed, at infinite dilution; xn = mol fraction of the nth substance listed. The settings on record: 101 kPa, Liquid, Chromatography, x1 = 0.

As to `CCCCCCC` [heptane] + CCCCC[N+]1(C)CCCCC1.O=S(=O)([N-]S(=O)(=O)C(F)(F)F)C(F)(F)F, the activity coefficient turned out to be 13.6 ± 0.9 (308.15 K); 12.4 ± 0.8 (318.15 K); 11.8 ± 0.8 (328.15 K); 11.3 ± 0.8 (338.15 K); 10.8 ± 0.7 (348.15 K); 10.4 ± 0.7 (358.15 K).

On to `C=CCCCC` [hex-1-ene] + CCCCCC[N+]1(C)CCCCC1.O=S(=O)([N-]S(=O)(=O)C(F)(F)F)C(F)(F)F, for which the activity coefficient came out at 4.53 ± 0.31 (308.15 K); 4.45 ± 0.3 (318.15 K); 4.34 ± 0.3 (328.15 K); 4.28 ± 0.29 (338.15 K); 4.15 ± 0.28 (348.15 K); 4.06 ± 0.28 (358.15 K).

As to `C=CCCCC` [hex-1-ene] + CCCCC[N+]1(C)CCCCC1.O=S(=O)([N-]S(=O)(=O)C(F)(F)F)C(F)(F)F, the activity coefficient (308.15 K) worked out at 5.52 ± 0.38; the activity coefficient (318.15 K) was 5.31 ± 0.36; the activity coefficient (328.15 K) worked out at 5.13 ± 0.35; the activity coefficient (338.15 K) was found to be 5 ± 0.34; the activity coefficient (348.15 K) turned out to be 4.92 ± 0.34; the activity coefficient (358.15 K) was determined as 4.8 ± 0.33.

In the case of `CCCCCC` [hexane] + CCCCCC[N+]1(C)CCCCC1.O=S(=O)([N-]S(=O)(=O)C(F)(F)F)C(F)(F)F, the activity coefficient (308.15 K) was 7.67 ± 0.52; the activity coefficient (318.15 K) was found to be 7.4 ± 0.5; the activity coefficient (328.15 K) came to 7.07 ± 0.48; the activity coefficient (338.15 K) worked out at 6.85 ± 0.47; the activity coefficient (348.15 K) worked out at 6.67 ± 0.45; the activity coefficient (358.15 K) was 6.37 ± 0.43.

For `CCCCCC` [hexane] + CCCCC[N+]1(C)CCCCC1.O=S(=O)([N-]S(=O)(=O)C(F)(F)F)C(F)(F)F, the activity coefficient (308.15 K) was determined as 9.9 ± 0.68; the activity coefficient (318.15 K) amounted to 9.5 ± 0.65; the activity coefficient (328.15 K) turned out to be 8.9 ± 0.61; the activity coefficient (338.15 K) was found to be 8.45 ± 0.58; the activity coefficient (348.15 K) came out at 8.19 ± 0.56; the activity coefficient (358.15 K) was 7.92 ± 0.54.

As to `CO` [methanol] + CCCCCC[N+]1(C)CCCCC1.O=S(=O)([N-]S(=O)(=O)C(F)(F)F)C(F)(F)F, the activity coefficient stood at 1.51 ± 0.1 (308.15 K); 1.37 ± 0.09 (318.15 K); 1.26 ± 0.08 (328.15 K); 1.16 ± 0.07 (338.15 K); 1.08 ± 0.07 (348.15 K); 0.995 ± 0.062 (358.15 K).

In the case of `CO` [methanol] + CCCCC[N+]1(C)CCCCC1.O=S(=O)([N-]S(=O)(=O)C(F)(F)F)C(F)(F)F, the activity coefficient came to 1.45 ± 0.1 (308.15 K); 1.32 ± 0.09 (318.15 K); 1.21 ± 0.08 (328.15 K); 1.12 ± 0.07 (338.15 K); 1.07 ± 0.07 (348.15 K); 1 ± 0.06 (358.15 K).

Regarding `CC1CCCCC1` [methylcyclohexane] + CCCCCC[N+]1(C)CCCCC1.O=S(=O)([N-]S(=O)(=O)C(F)(F)F)C(F)(F)F, the activity coefficient is, setting by setting: (308.15 K) 6.24 ± 0.43; (318.15 K) 6.05 ± 0.41; (328.15 K) 5.83 ± 0.4; (338.15 K) 5.59 ± 0.38; (348.15 K) 5.4 ± 0.37; (358.15 K) 5.2 ± 0.35.

Consider `CC1CCCCC1` [methylcyclohexane] + CCCCC[N+]1(C)CCCCC1.O=S(=O)([N-]S(=O)(=O)C(F)(F)F)C(F)(F)F, for which the activity coefficient by setting is: (308.15 K) 7.8 ± 0.53; (318.15 K) 7.49 ± 0.51; (328.15 K) 7.16 ± 0.49; (338.15 K) 6.87 ± 0.47; (348.15 K) 6.64 ± 0.45; (358.15 K) 6.42 ± 0.44.

On to `CCCCCCCCC` [nonane] + CCCCCC[N+]1(C)CCCCC1.O=S(=O)([N-]S(=O)(=O)C(F)(F)F)C(F)(F)F, for which the activity coefficient (308.15 K) turned out to be 16.9 ± 1.2; the activity coefficient (318.15 K) is 16.4 ± 1.1; the activity coefficient (328.15 K) stood at 15.7 ± 1.1; the activity coefficient (338.15 K) stood at 15.3 ± 1; the activity coefficient (348.15 K) is 14.6 ± 1; the activity coefficient (358.15 K) was determined as 14.1 ± 1.

Regarding `CCCCCCCCC` [nonane] + CCCCC[N+]1(C)CCCCC1.O=S(=O)([N-]S(=O)(=O)C(F)(F)F)C(F)(F)F, the activity coefficient (308.15 K) turned out to be 24.2 ± 1.7; the activity coefficient (318.15 K) came to 22.4 ± 1.5; the activity coefficient (328.15 K) amounted to 21.1 ± 1.4; the activity coefficient (338.15 K) came out at 19.9 ± 1.4; the activity coefficient (348.15 K) was 19 ± 1.3; the activity coefficient (358.15 K) was 18 ± 1.2.

Turning to `C=CCCCCCC` [oct-1-ene] + CCCCCC[N+]1(C)CCCCC1.O=S(=O)([N-]S(=O)(=O)C(F)(F)F)C(F)(F)F, the activity coefficient runs as follows: (308.15 K) 7.72 ± 0.53; (318.15 K) 7.6 ± 0.52; (328.15 K) 7.49 ± 0.51; (338.15 K) 7.37 ± 0.5; (348.15 K) 7.27 ± 0.5; (358.15 K) 7.2 ± 0.49.

Regarding `C=CCCCCCC` [oct-1-ene] + CCCCC[N+]1(C)CCCCC1.O=S(=O)([N-]S(=O)(=O)C(F)(F)F)C(F)(F)F, the activity coefficient by setting is: (308.15 K) 9.9 ± 0.68; (318.15 K) 9.65 ± 0.66; (328.15 K) 9.28 ± 0.63; (338.15 K) 8.94 ± 0.61; (348.15 K) 8.77 ± 0.6; (358.15 K) 8.47 ± 0.58.

For `CCCCCCCC` [octane] + CCCCCC[N+]1(C)CCCCC1.O=S(=O)([N-]S(=O)(=O)C(F)(F)F)C(F)(F)F, the activity coefficient is, setting by setting: (308.15 K) 12.9 ± 0.9; (318.15 K) 12.7 ± 0.9; (328.15 K) 12.1 ± 0.8; (338.15 K) 11.8 ± 0.8; (348.15 K) 11.3 ± 0.8; (358.15 K) 10.9 ± 0.7.

For `CCCCCCCC` [octane] + CCCCC[N+]1(C)CCCCC1.O=S(=O)([N-]S(=O)(=O)C(F)(F)F)C(F)(F)F, the activity coefficient was determined as 18.2 ± 1.2 (308.15 K); 16.9 ± 1.2 (318.15 K); 15.9 ± 1.1 (328.15 K); 15.1 ± 1 (338.15 K); 14.4 ± 1 (348.15 K); 13.7 ± 0.9 (358.15 K).
